This series in a line: in vitro. Conditions: human, hela cells, % viability.

78 compounds from paper PMC12040169 (PLOS Biology, 2025) can be followed below.

Usually viability stands for a read-out of living cells in per cent, often relative to untreated cells. In the case of `CN(C(=O)CN1CCN(c2cc(-c3ccsc3)ncn2)CC1)c1ccccc1` [CBK091129], the viability at 28.5 h, 10 µM worked out at 99.7%.

With `Cc1cc(C)c2nc(NC(=O)c3ccccc3)sc2c1` [CBK287308], the viability at 28.5 h, 10 µM is 97.9%.

For `CCOc1ccc(NC(=O)N(Cc2cnn(C)c2)CC(C)C)cc1C#N` [CBK307636], the viability at 28.5 h, 10 µM was found to be 93%.

Take `CCC(CO)Nc1cncc(-c2cccc(N)c2)n1` (stereo not drawn) [CBK065278]: the viability at 28.5 h, 10 µM worked out at 103%.

In the case of `O=C(O)c1ccccc1C(=O)N1CCC2(CC1)OCc1cc(F)ccc1O2` [CBK060863], the viability at 28.5 h, 10 µM (bulk resorufin, single well) worked out at 109%.

For `CCOC(=O)N1CCN(Cc2ccc(OCC3CCCNC3)cc2)CC1` (stereo not drawn) [CBK307355], the viability at 28.5 h, 10 µM stood at 73.8%.

Take `Cc1cc2c(s1)c1cnn(CC(=O)N(C)C)c(=O)c1n2C` [CBK284231]: the viability at 28.5 h, 10 µM was determined as 99.5%.

Consider `COc1ccc(CC(=O)N(C)CCN2CCCCC2)cc1C` [CBK282728], for which the viability at 28.5 h, 10 µM came to 99.3%.

`Cc1ccc(S(=O)(=O)NC2c3cccc4cccc(c34)C2Sc2n[nH]c(N)n2)cc1` (stereo not drawn) [CBK265875]: the viability at 28.5 h, 10 µM stood at 77.6%.

Regarding `O=C(O)CC1SC(N/N=C/c2ccc(-c3ccc(Cl)cc3[N+](=O)[O-])o2)=NC1=O` (stereo not drawn) [CBK264507], the viability at 28.5 h, 10 µM was determined as 108%.

For the compound `CCc1nccn1CC(=O)NCC(C)n1nc(C)cc1C` (stereo not drawn) [CBK281638], the viability at 28.5 h, 10 µM is 80.4%.

For the compound `O=S(=O)(Nc1cccc2[nH]ccc12)c1sc(Cl)cc1Br` [CBK153552], the viability at 28.5 h, 10 µM came to 69%.

`O=C(CCCn1ccnc1)NC(Cc1ccsc1)c1cccnc1` (stereo not drawn) [CBK285158]: the viability at 28.5 h, 10 µM came out at 94.9%.

In the case of `OCc1cccc(-c2cncc(NC3CCC(O)CC3)n2)c1` (stereo not drawn) [CBK065448], the viability at 28.5 h, 10 µM is 102%.

For `COc1cc(C(=O)NCC(=O)O)cc(OC)c1OC` [CBK261039], the viability at 28.5 h, 10 µM amounted to 89.9%.

As to `c1csc(N2CCN(c3nccn4cnnc34)CC2)n1` [CBK305185], the viability at 28.5 h, 10 µM is 103%.

On to `COc1ccc(CCN(CCN2CCOCC2)C(=O)NCc2ccc3c(c2)OCO3)cc1OC` [CBK160540], for which the viability at 28.5 h, 10 µM was determined as 93.3%.

Consider `O=S(=O)(NCc1ccco1)c1ccc2c(c1)Cc1ccccc1-2` [CBK267377], for which the viability at 28.5 h, 10 µM amounted to 95.5%.

Turning to `c1ccc2[nH]c(NCCN3CCOCC3)nc2c1` [CBK268791], the viability at 28.5 h, 10 µM stood at 96.7%.

For `CCc1nc2ccc(C(=O)N3CCN(C(=O)c4ccco4)CC3)cn2c1N(C)Cc1ccncc1` [CBK145635], the viability at 28.5 h, 10 µM amounted to 94.5%.

With `O=C(C1CN(C(=O)Cn2ncc(=O)c3ccccc32)c2ccccc2O1)N1CCCCC1` (stereo not drawn) [CBK297115], the viability at 28.5 h, 10 µM was 93.5%.

As to `O=C(Cc1ccc(-c2ccccc2)cc1)N1CCc2nc3ccccc3c(=O)n2CC1` [CBK286312], the viability at 28.5 h, 10 µM came to 97.2%.

Take `Cc1c(NC(=O)c2ccc([N+](=O)[O-])o2)cccc1-c1nc2ccccc2s1` [CBK263051]: the viability at 28.5 h, 10 µM amounted to 85.6%.

As to `CC(=O)N1CC[C@@H](CC(=O)O)[C@@H](CC2=NCCc3ccc(C(C)(C)C)cc32)C1` [CBK289165], the viability at 28.5 h, 10 µM was determined as 84.4%.

Regarding `Cc1ccc2c(c1)N(C(=O)COc1nc3ccccc3s1)C(C)(C)c1ssc(=S)c1-2` [CBK262696], the viability at 28.5 h, 10 µM worked out at 97.7%.

As to `COc1ccc(Cl)cc1N1CCN(CCCCC2NC(=O)NC2=O)CC1` (stereo not drawn) [CBK126448], the viability at 28.5 h, 10 µM came to 89.4%.

In the case of `Cc1ncsc1C(=O)N1CCC(c2cccc(Cc3ccc(C(F)(F)F)cc3)n2)CC1` [CBK286216], the viability at 28.5 h, 10 µM amounted to 99.5%.

With `CCOCCn1cnc2sc(C(=O)Nc3cccc(Cl)c3)c(C)c2c1=O` [CBK071854], the viability at 28.5 h, 10 µM was 91.8%.

Turning to `O=C(COc1ccc(S(=O)(=O)N2CCCCC2)cc1Cl)N1CCc2ccccc2C1` [CBK269510], the viability at 28.5 h, 10 µM is 88%.

In the case of `CN(C)CCN(Cc1ccccc1)Cc1c(F)cccc1Cl` [CBK261867], the viability at 28.5 h, 10 µM is 112%.

As for `CCOc1ccc(C(=O)NCCC(=O)O)cc1` [CBK261725D], the viability at 28.5 h, 10 µM was 92.2%.

Regarding `CC1(c2cc(F)ccc2F)NC(=O)N(c2ccncc2)C1=O` (stereo not drawn) [CBK291253], the viability at 28.5 h, 10 µM stood at 92.9%.

As to `COc1ccc(N2CCN(c3cc(-c4ccc(OC(F)(F)F)cc4)ncn3)CC2)cc1OC` [CBK091032], the viability at 28.5 h, 10 µM was determined as 94.1%.

As to `CN1CCN(c2ccc3ccn(S(=O)(=O)c4ccccc4Br)c3n2)CC1` [CBK200019C], the viability at 28.5 h, 10 µM worked out at 92.5%.

In the case of `FC(F)(F)c1cc(NCCC2CCCCN2)cc(C(F)(F)F)c1` (stereo not drawn) [CBK016963], the viability at 28.5 h, 10 µM amounted to 88.6%.

For `Cc1nn(Cc2ccc(C(=O)N3CCN(Cc4ccccc4)CC3)o2)c(C)c1Br` [CBK265796C], the viability at 28.5 h, 10 µM was 88.8%.

Take `CCc1cc(CNC(=O)C(c2ccc(Cl)cc2)N(C)C)on1` (stereo not drawn) [CBK281670]: the viability at 28.5 h, 10 µM stood at 96.6%.

As for `CC(C)NC(=O)N[C@H]1CCN2C(=O)c3ccc(Cl)cc3NC(=O)[C@H]12` [CBK289343], the viability at 28.5 h, 10 µM was 99.5%.

Take `O=C(Cc1cccnc1)N1CCC(c2cccc(Cc3ccc(C(F)(F)F)cc3)n2)CC1` [CBK286223]: the viability at 28.5 h, 10 µM worked out at 92.8%.

Take `CCn1c(=O)c(C=Cc2cc(OC)c(O)c(OC)c2)nc2cc(C(=O)O)ccc21` [CBK296701]: the viability at 28.5 h, 10 µM stood at 85.1%.

On to `C[C@H](Nc1nc(-c2cccc(-c3ccccc3)c2)cnc1N)c1ccccc1` [CBK063752], for which the viability at 28.5 h, 10 µM is 94.5%.

For `CCOc1ccccc1NC(=O)CCCC(=O)O` [CBK275986], the viability at 28.5 h, 10 µM was determined as 98.9%.

For `CCc1c(C)nc2ccccc2c1SCCOC(=O)Nc1ccccc1` [CBK155466T], the viability at 28.5 h, 10 µM was determined as 85.6%.

In the case of `CCCc1onc(S(=O)(=O)c2ccc(C)cc2)c1NC` [CBK020322], the viability at 28.5 h, 10 µM is 84.3%.

As to `Cc1nc(C2CCCN(C(=O)C3CCC3)C2)nc2c1CCCN2Cc1ccccc1` (stereo not drawn) [CBK286257], the viability at 28.5 h, 10 µM is 78.2%.

As to `NC(=O)C1CCN(C(=O)c2cc(O)nc3ccccc23)CC1` [CBK296719], the viability at 28.5 h, 10 µM was determined as 98.2%.

Take `OCCN(Cc1ccccc1)Cc1ccc(Cl)c(Cl)c1` [CBK261908]: the viability at 28.5 h, 10 µM was found to be 117%.

Regarding `Cc1cccc(-c2ccc3c(c2)C(=O)N2CC[C@H](NC(=O)NC(C)C)C[C@H]2C(=O)N3)c1C` [CBK289567], the viability at 28.5 h, 10 µM was determined as 97.9%.

In the case of `CCN(C(=O)c1ccc(C)nc1)[C@H]1CCO[C@@H](c2cccc(-c3cc(F)cc(F)c3)c2)C1` [CBK285856], the viability at 28.5 h, 10 µM came to 91%.

On to `CCCn1c(SCC(=O)Nc2scc(-c3cccs3)c2C(=O)OCC)n[nH]c1=O` [CBK296967], for which the viability at 28.5 h, 10 µM is 94.5%.

Turning to `COc1cccc(CN2CCN(C(=O)C3(C)CC3(Cl)Cl)CC2)c1` (stereo not drawn) [CBK268121], the viability at 28.5 h, 10 µM turned out to be 96.7%.

With `O=C(CNC(=O)C1CCCCC1)NNC(=O)c1ccccc1Br` [CBK267828], the viability at 28.5 h, 10 µM worked out at 102%.

With `Cc1nn(C)c(C)c1CCC(=O)NCC1CCN(c2ccccc2F)C1` (stereo not drawn) [CBK304357], the viability at 28.5 h, 10 µM came to 96.7%.

As for `Cc1cc(C[C@@H]2COC[C@H]2NCc2cccs2)on1` [CBK282999], the viability at 28.5 h, 10 µM came to 95.8%.

For `CC[C@H]1CN(C(=O)C2CC2)CC[C@H]1CC(=O)NCc1ccc2c(c1)OCO2` [CBK289133], the viability at 28.5 h, 10 µM amounted to 91.9%.

For the compound `COc1ccc(C)cc1-n1ccc(C(=O)N2CCSCC2)n1` [CBK305972], the viability at 28.5 h, 10 µM stood at 96.5%.

With `Cc1nc(CN2CCN(c3ccc4nnnn4n3)CC2)cs1` [CBK306056], the viability at 28.5 h, 10 µM is 79.3%.

On to `CNC(=O)C1(Cc2ccc(-c3ccccc3)cc2)CCN(C(=O)CC2CCCCC2)CC1` [CBK285763], for which the viability at 28.5 h, 10 µM came to 112%.

Consider `CC(NC(=O)c1cn(-c2ccccc2)nc1-c1cccnc1)c1ccccn1` (stereo not drawn) [CBK295660], for which the viability at 28.5 h, 10 µM amounted to 105%.

For the compound `Cc1nnc(N/N=C/c2cn(Cc3c(F)cccc3Cl)c3ccccc23)n1N` [CBK278277C], the viability at 28.5 h, 10 µM was determined as 86.8%.

On to `CN1CCN(C)C(COc2ncccc2C(F)(F)F)C1` (stereo not drawn) [CBK113458], for which the viability at 28.5 h, 10 µM is 90.5%.

Consider `O=S(=O)(Nc1ccc(N2CCNCC2)c2ccccc12)c1ccc(Br)cc1F` [CBK200014C], for which the viability at 28.5 h, 10 µM came out at 95.4%.

For the compound `O=C(C1CCC1)N1CCN(c2ccccn2)CC1` [CBK026058], the viability at 28.5 h, 10 µM was 107%.

For the compound `CCOC(=O)C1(c2ccccc2)CCN(C(=O)c2ccco2)CC1` [CBK132199], the viability at 28.5 h, 10 µM (bulk resorufin, single well) came to 86.2%.

`CN(C)CCCN1C(=O)C(O)=C(C(=O)c2ccc(F)cc2)C1c1ccco1` (stereo not drawn) [CBK264456]: the viability at 28.5 h, 10 µM stood at 94.6%.

Turning to `COc1cc(C)c(Nc2cccc(-c3ccc(O)cc3)n2)cc1OC` [CBK037608], the viability at 28.5 h, 10 µM is 107%.

As for `CCN1C(=O)c2ccccc2C(=O)[C@@]2(C)CN(CC(C)C)C[C@@H]12` [CBK283479], the viability at 28.5 h, 10 µM was determined as 102%.

Consider `Nc1ccc2cc(-c3ccsc3)cnc2n1` [CBK081167], for which the viability at 28.5 h, 10 µM was 101%.

Turning to `COc1ccc(CNC(=O)N(Cc2cccnc2)Cc2ccc3c(c2)OCO3)cc1OC` [CBK159456], the viability at 28.5 h, 10 µM stood at 87.3%.

`O=C(c1ccco1)N1CCN(S(=O)(=O)c2ccc3c(c2)C(=NO)c2cc(S(=O)(=O)N4CCN(C(=O)c5ccco5)CC4)ccc2-3)CC1` [CBK262103]: the viability at 28.5 h, 10 µM is 104%.

For the compound `CCOc1ccc(N2C(=O)CC(N3CCN(CCc4ccccn4)CC3)C2=O)cc1` (stereo not drawn) [CBK270149], the viability at 28.5 h, 10 µM is 95.8%.

On to `Cc1ccc2[nH]c3c(c2c1)CCNC31CCN(CC2CCCCO2)CC1` (stereo not drawn) [CBK039545], for which the viability at 28.5 h, 10 µM was 103%.

In the case of `OC(CNCCc1c[nH]c2ccccc12)COc1cccc2c1CCCC2` (stereo not drawn) [CBK003831], the viability at 28.5 h, 10 µM amounted to 93.9%.

For the compound `COc1ccc(OC)c(NC(=O)CNC(=O)c2ccccc2F)c1` [CBK267846], the viability at 28.5 h, 10 µM was 91.5%.

Consider `CC(=O)N1CCC2(CCCC[C@H]3CN(C(C)C)CC[C@@H]3NC(=O)CNC2=O)CC1` [CBK292133], for which the viability at 28.5 h, 10 µM was 102%.

With `CC1(C)CC(=O)C2=C(C1)c1onc(N)c1C2Cc1ccccc1` (stereo not drawn) [CBK269206], the viability at 28.5 h, 10 µM was found to be 110%.

As to `Clc1ccccc1-c1nccnc1NCCc1c[nH]c2ccccc12` [CBK037337], the viability at 28.5 h, 10 µM was found to be 106%.

`C[C@@H](Nc1cncc(-c2ccc3c(c2)OCO3)n1)c1ccccc1` [CBK065954]: the viability at 28.5 h, 10 µM is 108%.
